Results from paper PMC6272348, “Four New Pentasaccharide Resin Glycosides from Ipomoea cairica with Strong α-Glucosidase Inhibitory Activity” (Molecules, 2015).

Molecular target: α-glucosidase
Assay: α-glucosidase inhibition assay (PNPG substrate)
Format: biochemical
Settings: pH 6.8, 37 °C, 10 min, 0.01 M PNPG substrate, 1 U/mL enzyme; means ± SD of three independent replicates; read-out: α-Glucosidase Inhibition Contstant (IC50)
Experimental: The a-glucosidase inhibition assay was performed according to a slightly modified method of Pierre et al.. α-Glucosidase was purchased from Sigma (San Francisco, CA, USA, No. M0035-15). The inhibition was measured spectrophotometrically at pH 6.8 and at 37 °C for 10 min, using 0.01 M p-nitrophenyl a-D-glucopyranoside (PNPG) from Sigma (No. M0103) as a substrate and 1 U/mL of enzyme, in 0.067 M KH2PO4-Na2HPO4 buffer. […] The increment in absorption at 410 nm due to the hydrolysis of PNPG by α-glucosidase was monitored continuously with an automatic multi-functional microplate reader.

Row | IC50 | SMILES
1 | 21.4 ± 2.9 µM | CCCCCC1CCCCCCCCCC(=O)OC2C(OC(C)C(OC3OC(C)C(OC4OC(C)C(OC(=O)C(C)CC)C(OC(=O)C=Cc5ccccc5)C4O)C(OC4OC(C)C(O)C(O)C4O)C3OC(=O)C(C)CC)C2O)OC2C(O1)OC(CO)C(O)C2O [Compound 1, (S)-jalapinolic acid 11-O-α-L-rhamnopyranosyl-(1→3)-O-[3-O-trans-cinnamoyl-4-O-(S)-2-methyl-butyryl-α-L-rhamnopyranosyl-(1→4)]-O-[2-O-(S)-2-methylbutyryl]-α-L-rhamnopyranosyl-(1→4)-O-α-L-rhamnopyranosyl-(1→2)-O-β-D-glucopyranoside, intramolecular 1,2''-ester]
2 | 26.2 ± 4.6 µM | CCCCCC1CCCCCCCCCC(=O)OC2C(OC(C)C(OC3OC(C)C(OC4OC(C)C(OC(=O)C(C)CC)C(OC(=O)C=Cc5ccccc5)C4O)C(OC4OC(C)C(O)C(O)C4O)C3OC(=O)CCC)C2O)OC2C(O1)OC(CO)C(O)C2O (stereo not shown) [Compound 2, Cairicoside II]
3 | 28.9 ± 1.4 µM | CCCCCCCCCC(=O)OC1C(OC2C(C)OC3OC4C(OC(CCCCC)CCCCCCCCCC(=O)OC3C2O)OC(CO)C(O)C4O)OC(C)C(OC2OC(C)C(OC(=O)C(C)CC)C(OC(=O)C=Cc3ccccc3)C2O)C1OC1OC(C)C(O)C(O)C1O (stereo not shown) [Compound 4, Cairicoside IV]
4 | 30.4 ± 3.9 µM | CCCCCCCC(=O)OC1C(OC2C(C)OC3OC4C(OC(CCCCC)CCCCCCCCCC(=O)OC3C2O)OC(CO)C(O)C4O)OC(C)C(OC2OC(C)C(OC(=O)C(C)CC)C(OC(=O)C=Cc3ccccc3)C2O)C1OC1OC(C)C(O)C(O)C1O (stereo not shown) [Compound 3, Cairicoside III]
